Source: patent US12502416B1, “PAM3CSK4 injection for the prevention and management of MASLD” (DASMAN DIABETES INSTITUTE, priority 2025, dated 2025)
Ends that are not written are not given here. * marks the point of attachment. X1 = 2,3‑bis(palmitoyloxy)‑(2RS)‑propyl, CCCCCCCCCCCCCCCC(=O)OCC(C*)OC(=O)CCCCCCCCCCCCCCC; Palmitoyl = CCCCCCCCCCCCCCCC(=O)*

Legend:
Assay type in all cases: in vivo
CD36 = assay: Liver CD36 expression by qRT-PCR in high-fat diet mice; conditions: HFD mice; 10 μg/kg IP every other day for two weeks; liver total RNA, qRT-PCR (FIG. 3B)
Experimental: (§1) Referring to FIGS. 3A-3B, 8-10 weeks-old male mice (n−20) were fed a high-fat diet (60% fat). […] These mice were randomly divided into 2 groups. Mice in Group 1 (n=10) received injections of 0.9% normal saline (vehicle) every other day for a duration of two weeks. Mice in Group 2 (n=10) received injections of Pam3CSK4 (SEQ ID NO: 1) (drug:10 μg/kg; IP) every other day for a duration of two weeks. Throughout the treatment period, mice were kept on a high-fat diet. Total RNA was extracted from livers and expression of PPAR-γ (FIG. 3A) and CD36 (FIG. 3B) was determined by qRT-PCR. Data presents as mean±SD.

[1] = test system: C57BL/6 mice on high-fat diet (liver steatosis); assay: Liver section histology (H&E) in high-fat diet mice with liver steatosis; conditions: obese HFD mice with steatosis, 10 μg/kg IP every other day for two weeks
Experimental: (§2) In the experiment, 8-10 weeks-old male mice (n−20) were fed a high-fat diet (60% fat). […] These mice were randomly divided into 2 groups. Mice in Group 1(n−10) received injections of 0.9% normal saline (vehicle) every other day for a duration of two weeks. Mice in Group 2 (n−10) received injections of Pam3CSK4 (SEQ ID NO: 1) (drug:10 μg/kg; IP) every other day for a duration of two weeks. Throughout the treatment period, mice were kept on a high-fat diet. A) Liver sections of the mice were stained with H&E. Referring to FIG. 2, fasting blood glucose was reduced in the mice treated with Pam3CSK4 (SEQ ID NO: 1) compared to mice treated with a vehicle. […] By non-limiting example, a vehicle may be saline, a sugar water solution, or other similar substances that may be injected without affecting the subject directly. Data is presented as mean±SD.

[2] = test system: C57BL/6 mice on high-fat diet (impaired glucose homeostasis); assay: Fasting blood glucose in high-fat diet mice; conditions: HFD mice; 10 μg/kg IP every other day for two weeks; compared to vehicle (FIG. 2)
Experimental: as §2

PPAR-γ = assay: Liver PPAR-γ expression by qRT-PCR in high-fat diet mice; conditions: HFD mice; 10 μg/kg IP every other day for two weeks; liver total RNA, qRT-PCR (FIG. 3A)
Experimental: as §1

## Pam3CysSerLys4 (Palmitoyl-C(X1)SKKKK) [Pam3CSK4, a synthetic triacylated lipopeptide (LP) and a TLR2/TLR1 ligand]
CD36
  CD36 expression in the liver: suppressed
[1]
  normal liver without any fat in treated mice: 100%
[1]; vs vehicle
  hepatic fat accumulation: effectively reduces hepatic fat accumulation
[2]
  fasting blood glucose (FBG): reduced
PPAR-γ
  PPAR-γ expression in the liver: suppressed
